These results are taken from US6136327A, “Stereospecific delivery of a drug using electrotransport” (priority 1997, dated 2000).

For data set [1] the following is noted: in vivo; cited from earlier work.
Data set [2] can be described thus: clinical. Particulars: in vivo; for AUC(0-inf): AUCinf. The method, then: A study was performed in order to compare the pharmacokinetic parameters of R- and S-ketorolac following intravenous, passive transdermal and electrotransport administration of a racemic mixture of ketorolac.
Twelve healthy male volunteers were enrolled in a pilot feasibility study. Subjects were required to undergo a pre-study screening to evaluate whether they met study inclusion or exclusion criteria. Screening procedures included a medical history, physical exam, electrocardiogram and clinical laboratory tests.
The study was an open-label, randomized, three-treatment crossover pharmacokinetics study designed to compare plasma ketorolac concentrations during 24-hour treatment regimens with an electrotransport system ("ETS"), a (passive) therapeutic transdermal system ("TTS") and intravenous ketorolac bolus injection.
The ketorolac treatments are listed below; there was a washout period of at least 6 days between treatments.
During the ETS (ketorolac) treatment, each subject was expected to receive an estimated 26 mg of ketorolac free acid over a 24-hour period, delivered by electrotransport from a total cathode area of 18 cm^2, based on an estimated in vitro flux rate of 60 μg/cm^2 /h.
Three electrotransport systems, with a total cathode gel area of 18 cm^2, were applied to the upper arms of each subject in this study. Each of the three controllers was set to provide a total direct current of 0.6 mA, which maintained a current density of 100 μA/cm^2.
During TTS treatment, each subject was expected to receive an estimated 50 mg of ketorolac free acid over a 24-hour period, delivered passively through the skin from a total application area of 75 cm^2 based on an estimated in vitro flux rate of 25 to 30 μg/cm^2 /h.
The TTS systems were produced with a backing and protective liner in a 25 cm^2 size. The system formulation contained drug (free acid), ethylene vinyl acetate (40% vinyl acetate), glycerol monolaurate, and Ceraphyl® 31. Three TTS monoliths, with a total surface area of 75 cm^2, were used to deliver the drug. The combined systems contained 135 mg of ketorolac free acid. Because the systems were not self-adhesive, an adhesive overlay was required to ensure good skin contact.
During the intravenous bolus treatment, each subject received a total of 24 mg of ketorolac free acid (36 mg of ketorolac tromethamine salt). Drug was delivered by IV bolus injections of 12 mg of ketorolac free acid (18 mg of ketorolac tromethamine salt) which were administered at Hour 0 and at Hour 12. A 1 mL aliquot of each ketorolac solution was retained directly after syringe preparation and prior to injection.
Initially either the ETS or the TTS was applied, or the first intravenous injection was administered. ETS and TTS treatments continued for 24 hours, and the bolus treatment was completed after the second dose at 12 hours. Blood and urine samples were collected at intervals during a 48-hour period after initiation of each ketorolac treatment regimen.
Blood samples, 7 mL each, were collected from each subject at intervals during the 48 hour period after initiation of treatment.
Plasma levels of ketorolac were determined by HPLC assay, performed at the Clinical Pharmacology Division of the School of Medicine at Indiana University, Wishard Memorial Hospital, Indianapolis, Ind.
Actual blood sample collection times were used for all calculations and data were summarized by nominal sampling times. Plasma ketorolac concentrations below the assay quantification limit of 20 ng/mL were assigned a value of zero.

For data set [3] the following is noted: in vivo. The method, then: The transport of the R- and S-isomers of ketorolac was evaluated using passive transdermal delivery and electrotransport, in a study conducted in healthy volunteers. Intravenous bolus administration of 24 mg racemic ketorolac served as the reference treatment. The relative amounts of R- and S-ketorolac absorbed following passive transdermal and electrotransport administration were determined relative to intravenous R- and S-ketorolac clearance (assuming that the racemic ketorolac contained equal amounts of the R- and S-isomers).

The conditions of data set [4]: transdermal; cited from earlier work.

As to `O=C(c1ccccc1)c1ccc2n1CC[C@@H]2C(=O)O` [S-ketorolac], in data set [1], the “clearance vs other enantiomer” value is on record as “more rapid clearance than the other enantiomer”. Also, the “Plasma Ketorolac Concentrations” value in data set [2] (human, 60 min) came to 0.0 ng/mL; in data set [2] (human, 90 min), 0.0 ng/mL; in data set [2] (human, 360 min), 0.0 ng/mL; in data set [2] (human, 480 min) it was 0.0 ng/mL; in data set [2] (human, 720 min), 0.0 ng/mL; in data set [2] (human, 960 min) it was 0.0 ng/mL. The “Plasma Ketorolac Concentrations” value in data set [2] (human, 1200 min) is listed as 0.0 ng/mL; in data set [2] (human, 1440 min), 0.0 ng/mL; in data set [2] (human, 1470 min) it was 0.0 ng/mL; in data set [2] (human, 1500 min) it was 0.0 ng/mL; in data set [2] (human, 1560 min), 0.0 ng/mL; in data set [2] (human, 1680 min), 0.0 ng/mL. The “Plasma Ketorolac Concentrations” value is 0.0 ng/mL in data set [2] (human, iv, 240 min); 0.0 ng/mL in data set [2] (human, iv, 360 min); 0.0 ng/mL in data set [2] (human, iv, 480 min); 0.0 ng/mL in data set [2] (human, iv, 720 min); 113.0 ng/mL in data set [2] (human, iv, 14 h); 0.0 ng/mL in data set [2] (human, iv, 1080 min). The “Plasma Ketorolac Concentrations” value amounted to 0.0 ng/mL in data set [2] (human, iv, 1200 min); 0.0 ng/mL in data set [2] (human, iv, 1440 min); 58.0 ng/mL in data set [2] (human, topical or ocular, 16 h); 21.0 ng/mL in data set [2] (human, topical or ocular, 28 h). The AUC inf in data set [2] (human, iv) came to 1566 ng·h/mL. For the same compound, in data set [2] (human, iv), the “Apparent elimination rate constant (k)” value is 0.41 h⁻¹. For the same compound, in data set [2] (human, iv), the C max worked out at 404 ng/mL. For the same compound, the “K2 (elimination rate constant)” value in data set [2] (human, iv) amounted to 0.35 h⁻¹. In addition, the T max in data set [2] (human, iv) is given as 0.5 h. For the same compound, the Volume in data set [2] (human, iv) turned out to be 10.33 L. Moreover, the area under the curve AUC(0-inf) in data set [2] (human, iv) turned out to be 1560 ng·h/mL. In data set [2] (iv), the “Amount Delivered (AD), ETS/IV (amount absorbed)” value is reported as 11.65 mg. In data set [2] (iv), the “Amount Delivered (AD), TTS/IV (amount absorbed)” value is given as 4.76 mg. Moreover, in data set [2] (iv), the “K1 (distribution rate constant)” value amounted to 2.10 h⁻¹. The “clearance, R- vs S-ketorolac” value in data set [2] (iv) is reported as “differed”. For the same compound, the “S/R ratio of amount absorbed, mean” value in data set [3] turned out to be 1.15. In data set [3], the “S/R ratio of amount absorbed, median” value was determined as 1.18. Further, the “S/R ratio of amount absorbed, range” value in data set [3] is listed as 0.8-1.43.

For the compound phenylpropanolamine, the “flux rates of individual purified isomers” value in data set [4] is recorded as “nearly identical flux rates”.

In the case of `O=C(c1ccccc1)c1ccc2n1CC[C@H]2C(=O)O` [R-ketorolac], the “Plasma Ketorolac Concentrations” value in data set [2] (human, 60 min) is 0.0 ng/mL; in data set [2] (human, 90 min), 0.0 ng/mL; in data set [2] (human, 240 min), 0.0 ng/mL; in data set [2] (human, 360 min), 0.0 ng/mL; in data set [2] (human, 480 min), 0.0 ng/mL; in data set [2] (human, 720 min), 0.0 ng/mL. In addition, the “Plasma Ketorolac Concentrations” value in data set [2] (human, 960 min) was 0.0 ng/mL; in data set [2] (human, 1680 min), 0.0 ng/mL; in data set [2] (human, 1920 min), 0.0 ng/mL; in data set [2] (human, 2880 min), 0.0 ng/mL; in data set [2] (human, iv, 720 min), 0.0 ng/mL; in data set [2] (human, iv, 14 h) it was 386.0 ng/mL. The “Plasma Ketorolac Concentrations” value was determined as 37.0 ng/mL in data set [2] (human, topical or ocular, 1.5 h); 67.0 ng/mL in data set [2] (human, topical or ocular, 12 h); 29.0 ng/mL in data set [2] (human, topical or ocular, 20 h); 211.0 ng/mL in data set [2] (human, topical or ocular, 24.5 h). The AUC(0-inf) was 5640 ng·h/mL in data set [2] (human) and 6250 ng·h/mL in data set [2] (human, iv). In addition, the AUC inf in data set [2] (human, iv) was 6171 ng·h/mL. Moreover, the “Apparent elimination rate constant (k)” value in data set [2] (human, iv) amounted to 0.125 h⁻¹. For the same compound, the “Apparent half-life (t1/2)” value in data set [2] (human, iv) came to 4.3 h. The compound further came in with a C max in data set [2] (human, iv) of 872 ng/mL. The “K2 (elimination rate constant)” value in data set [2] (human, iv) worked out at 0.15 h⁻¹. In data set [2] (human, iv), this compound gave a Volume of 5.4 L. Also, in data set [2] (human, iv, Apparent elimination rate constant (k)), the k el is 3.89e-05 s⁻¹. Further, the half-life in data set [2] (human, iv, Apparent half-life (t1/2)) is 5 h. In addition, the “plasma concentrations during TTS compared with ETS” value in data set [2] is “lower than those observed during ETS administration”. Besides, the “Amount Delivered (AD), ETS/IV (amount absorbed)” value in data set [2] (iv) was found to be 7.9 mg. In addition, in data set [2] (iv), the “Amount Delivered (AD), TTS/IV (amount absorbed)” value amounted to 4.96 mg. For the same compound, the “K1 (distribution rate constant)” value in data set [2] (iv) came to 1.54 h⁻¹. Also, in data set [2] (iv), the T max came out at 0.5 h. Also, the “clearance, R- vs S-ketorolac” value in data set [2] (iv) is recorded as “differed”.

One may read the AUC(0-inf) as total exposure, with the tail of the curve extrapolated. For orientation: half-life means the time needed for the level to fall by half in the phase considered.
